{"source": "patent US20230405134A1", "about": "“NOVEL PROTAC CHIMERIC COMPOUND, AND PHARMACEUTICAL COMPOSITION COMPRISING SAME FOR PREVENTING, AMELIORATING, OR TREATING DISEASES THROUGH TARGET PROTEIN DEGRADATION” (POSTECH RESEARCH AND BUSINESS DEVELOPMENT FOUNDATION, priority 2020, published 2023)", "key": {"MDA-MB-231 cells": {"tested_on": "MDA-MB-231 cells", "experiment": "Matrigel invasion assay", "assay_type": "cell-based, human", "conditions": "24 hours; ND1-YL2 various concentrations, YL2 and RLAA 20 μM", "description": "The inhibition of cell migration may be due to the inhibitory effect of ND1-YL2 on cell growth. In order to exclude this possibility, the invasive ability of cells treated with ND1-YL2 was confirmed. A Corning Matrigel insert (Corning) was placed in a 24-well plate. After hydrating the Matrigel insert with an FBS-free DMEM medium for 2 hours in a CO2 incubator, MDA-MB-231 cells were cultured in the Matrigel insert (4×10^4 cells/insert) with 125 μL of Opti-MEM medium. Another 125 μl of compound containing Opti-MEM medium was added to the insert. The lower chamber was filled with 500 μL of DMEM medium containing 10% FBS. The Matrigel chamber was cultured for 24 hours under the conditions of 37° C. and 5% CO2. The cell culture media of the upper and lower chambers were removed and washed three times with cold DPBS. Non-invasive cells were then removed with a cotton swab. The bottom of the chamber was fixed with 4% formaldehyde for 10 minutes at room temperature, and stained with Hoechst 33342 (5 μg/mL) for 5 minutes in a CO2 incubator. After washed with DPBS, images of infiltrated cells were obtained by a fluorescence microscope. The percentage of the invasive cells was calculated using the product manual. MDA-MB-231 cells were treated with various concentrations of ND1-YL2, N-degron (20 μM) or YL2 (20 μM). After 24 hours, images of the invaded cells were obtained by a fluorescence microscope, and the number of invaded cells was quantified through the images. […] The inhibitory activity of ND1-YL2 on cell migration and invasion is in good agreement with previous SRC-1 knockdown experiments."}, "MDA-MB-231-RFP cells": {"tested_on": "MDA-MB-231-RFP cells", "experiment": "Pulmonary metastasis model in mice", "assay_type": "in vivo, BALB/c-nude mice", "conditions": "cells treated with 100 μM for 12 hours, intravenously injected, flow cytometry of lungs after two weeks", "description": "It was confirmed whether ND1-YL2 could inhibit cancer metastasis through mice model. MDA-MB-231-RFP cells expressing red fluorescent protein (RFP) were cultured in DMEM (Welgene) containing 10% FBS (Omega Scientific Inc.) under the conditions of 37° C. and 5% CO2. 5-week-old BALB/c-nude mice (OriententBio Inc.) were maintained in a sterile environment and had free access to food and water. All animal procedures were approved by the Organ Animal Care and Use Committee of POSTECH. For the pulmonary metastasis model, MDA-MB-231-RFP cells treated with DMSO or 100 μM of ND1-YL2 for 12 hours were intravenously injected at 10^6 cells per mouse, followed by […]. The lungs were harvested and prepared in a single cell suspension and filtered through a 100 μm cell strainer (Corning). It was further cultured for 2 minutes in ACK lysis buffer (Gibco). The samples were analyzed by LSR Fortessa (BD Biosciences). […] To visualize lung metastasis, lung sections were prepared and dyed with Haemotoxylin and Eosin (H&E) stain."}, "SRC-3": {"target": "T1, SRC-3 (Homo sapiens, UniProt Q9Y6Q9)", "T1 construct": "endogenous in cells; host or cells: MDA-MB-231", "T1 sequence (Q9Y6Q9 whole entry)": "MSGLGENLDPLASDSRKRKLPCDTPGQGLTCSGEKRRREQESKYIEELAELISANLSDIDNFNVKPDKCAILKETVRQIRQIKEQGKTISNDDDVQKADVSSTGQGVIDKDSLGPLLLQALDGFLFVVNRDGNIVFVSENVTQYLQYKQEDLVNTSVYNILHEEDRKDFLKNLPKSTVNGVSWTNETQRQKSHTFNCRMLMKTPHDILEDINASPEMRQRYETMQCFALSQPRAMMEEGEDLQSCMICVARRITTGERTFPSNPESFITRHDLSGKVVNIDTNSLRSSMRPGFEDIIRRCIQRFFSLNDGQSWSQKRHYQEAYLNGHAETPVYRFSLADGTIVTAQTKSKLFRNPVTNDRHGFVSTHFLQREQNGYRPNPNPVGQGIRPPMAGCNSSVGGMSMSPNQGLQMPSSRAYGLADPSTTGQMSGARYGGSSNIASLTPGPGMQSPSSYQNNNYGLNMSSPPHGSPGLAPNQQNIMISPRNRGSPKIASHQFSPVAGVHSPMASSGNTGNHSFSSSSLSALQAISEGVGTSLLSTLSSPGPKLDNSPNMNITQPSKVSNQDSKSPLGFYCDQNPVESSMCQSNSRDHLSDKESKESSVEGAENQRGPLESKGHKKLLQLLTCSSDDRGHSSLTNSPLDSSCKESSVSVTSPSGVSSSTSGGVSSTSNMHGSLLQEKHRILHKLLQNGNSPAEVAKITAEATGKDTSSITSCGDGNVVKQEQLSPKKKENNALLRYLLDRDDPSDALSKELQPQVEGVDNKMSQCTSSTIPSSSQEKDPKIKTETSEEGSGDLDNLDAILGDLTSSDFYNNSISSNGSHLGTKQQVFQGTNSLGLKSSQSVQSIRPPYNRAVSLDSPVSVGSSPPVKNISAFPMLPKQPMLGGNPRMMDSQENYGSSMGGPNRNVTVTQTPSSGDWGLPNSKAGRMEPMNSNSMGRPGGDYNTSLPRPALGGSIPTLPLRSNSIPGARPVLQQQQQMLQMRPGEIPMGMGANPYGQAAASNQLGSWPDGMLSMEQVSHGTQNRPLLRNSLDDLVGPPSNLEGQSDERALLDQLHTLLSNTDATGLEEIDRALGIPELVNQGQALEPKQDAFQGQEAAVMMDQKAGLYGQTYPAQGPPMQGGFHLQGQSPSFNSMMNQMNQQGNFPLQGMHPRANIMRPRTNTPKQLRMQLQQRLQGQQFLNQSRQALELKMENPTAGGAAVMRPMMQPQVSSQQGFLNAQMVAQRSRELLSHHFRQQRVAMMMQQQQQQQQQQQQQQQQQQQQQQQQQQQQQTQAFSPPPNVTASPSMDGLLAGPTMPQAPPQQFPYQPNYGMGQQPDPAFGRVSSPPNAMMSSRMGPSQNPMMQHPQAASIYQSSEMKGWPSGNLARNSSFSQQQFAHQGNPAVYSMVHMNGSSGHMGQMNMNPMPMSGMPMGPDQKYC", "experiment": "SRC-3 expression level in MDA-MB-231 cells by Western blot", "assay_type": "cell-based", "conditions": "20 μM", "description": "It was confirmed whether ND1-YL2 could selectively target and degrade SRC-1 over other SRC family members. Considering the structural similarity between SRC members, it can be predicted that ND1-YL2 will be able to bind to and degrade other members of the SRC family, such as SRC-3. […] To test this, TNBC MDA-MB-231 cells were treated with ND1-YL2 and the amounts of SRC-3 and SRC-1 were confirmed at the cellular level by Western blotting (FIG. 17)."}, "SRC-1 [1]": {"target": "T2, SRC-1 (Homo sapiens, UniProt Q15788)", "T2 sequence (Q15788 whole entry)": "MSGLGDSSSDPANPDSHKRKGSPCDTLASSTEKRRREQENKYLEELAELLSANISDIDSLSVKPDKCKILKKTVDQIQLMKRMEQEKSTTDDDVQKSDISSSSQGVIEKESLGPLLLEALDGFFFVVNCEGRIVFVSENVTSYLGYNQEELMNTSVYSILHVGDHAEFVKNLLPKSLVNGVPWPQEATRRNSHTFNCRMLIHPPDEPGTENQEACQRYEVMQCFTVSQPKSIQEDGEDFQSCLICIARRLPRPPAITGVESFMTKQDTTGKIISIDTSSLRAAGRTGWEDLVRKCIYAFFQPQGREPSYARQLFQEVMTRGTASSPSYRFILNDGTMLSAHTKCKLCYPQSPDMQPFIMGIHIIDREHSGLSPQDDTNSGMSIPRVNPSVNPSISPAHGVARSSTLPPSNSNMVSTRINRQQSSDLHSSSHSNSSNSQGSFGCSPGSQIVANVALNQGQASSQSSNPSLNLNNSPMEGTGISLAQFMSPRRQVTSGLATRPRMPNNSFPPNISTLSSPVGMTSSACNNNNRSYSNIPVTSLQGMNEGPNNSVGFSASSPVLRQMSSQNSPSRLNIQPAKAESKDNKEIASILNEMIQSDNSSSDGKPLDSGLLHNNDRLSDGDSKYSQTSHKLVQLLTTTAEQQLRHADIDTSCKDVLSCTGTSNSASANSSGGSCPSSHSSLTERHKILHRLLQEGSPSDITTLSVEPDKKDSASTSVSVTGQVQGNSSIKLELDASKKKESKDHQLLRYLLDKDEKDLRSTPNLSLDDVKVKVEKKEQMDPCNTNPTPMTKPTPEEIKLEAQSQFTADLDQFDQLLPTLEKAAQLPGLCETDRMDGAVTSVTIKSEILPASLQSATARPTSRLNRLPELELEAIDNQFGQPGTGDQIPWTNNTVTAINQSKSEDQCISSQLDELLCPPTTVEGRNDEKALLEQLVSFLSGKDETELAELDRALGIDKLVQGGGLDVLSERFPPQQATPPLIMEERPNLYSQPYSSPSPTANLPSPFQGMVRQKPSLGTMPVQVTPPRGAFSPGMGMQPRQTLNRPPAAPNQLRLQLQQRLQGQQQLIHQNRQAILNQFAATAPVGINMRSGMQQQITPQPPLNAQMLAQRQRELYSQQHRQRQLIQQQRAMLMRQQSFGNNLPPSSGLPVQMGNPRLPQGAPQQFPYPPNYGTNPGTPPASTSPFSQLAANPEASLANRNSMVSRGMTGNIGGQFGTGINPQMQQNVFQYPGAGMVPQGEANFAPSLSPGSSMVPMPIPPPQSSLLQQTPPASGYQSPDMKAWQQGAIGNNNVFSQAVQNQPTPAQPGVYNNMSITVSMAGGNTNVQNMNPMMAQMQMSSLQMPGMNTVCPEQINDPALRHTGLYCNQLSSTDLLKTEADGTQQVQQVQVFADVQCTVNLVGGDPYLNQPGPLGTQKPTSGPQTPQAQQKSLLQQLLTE", "experiment": "SRC-1 expression level in Colo205 cells by Western blot", "assay_type": "cell-based", "parameters": "endogenous in cells", "conditions": "Colo205 cells expressing very low levels of CRBN, various concentrations", "description": "MDA-MB-231 cells were cultured at 37° C. in Dulbecco's modified Eagle's medium (DMEM) supplemented with penicillin-streptomycin containing 10% fetal bovine serum (FBS) and 5% CO2. Colo205 and A549 cells were cultured at 37° C. in Roswell Park Memorial Institute medium supplemented with penicillin-streptomycin with 10% FBS and 5% CO2.\nIn order to compare the SRC-1 proteolytic activity of ND1-YL2 and CL1-YL2 peptides in cells, A549 cells, which are human lung carcinoma cells, were treated with various concentrations of CL1-YL2, and the effect on SRC-1 degradation was analyzed by Western blot. A549 cells were seeded at 5×10^5 cells per well in a 6-well plate (Corning). Colo205 cells were seeded at 6×10^5 cells per well in a 6-well plate. After incubation at 37° C. for 24 hours, the cells were treated with the synthesized compounds in Opti-MEM medium. The cells were washed twice with cold Dulbecco's phosphate buffered saline (DPBS) prior to cell lysis. In order to lyse the cells, the cells on ice were treated with lysis buffer (50 mM Tris HCl pH 7.4, 150 mM NaCl, 1% TritonX, 1 mM EDTA, 1 mM DTT and 1×protease inhibitor cocktail). The cell lysate was centrifuged at 13,000×rpm for 15 minutes at 4° C. The supernatant was collected and the protein concentration was determined by Pierce™ 660 nm protein assay. […]"}, "SRC-1 [2]": {"target": "T2, SRC-1", "experiment": "SRC-1 expression level in MDA-MB-231 cells by Western blot", "assay_type": "cell-based", "parameters": "endogenous in cells; host or cells: MDA-MB-231"}}, "note": "Where a SMILES comes first, the peptide text is derived from it. Bridges are numbered along the chain shown (N, C = ends). [ ]: non-standard residue; d: D form. Cha = N[C@@H](CC1CCCCC1)C(=O)O; S5 = C=CCCC[C@](C)(N)C(=O)O"}
{"compound": "CC(C)C[C@H](NC(=O)[C@H](C)NC(=O)[C@H](C)NC(=O)[C@H](C)NC(=O)[C@H](C)NC(=O)[C@H](CC(C)C)NC(=O)[C@@H](N)CCCNC(=N)N)C(=O)N[C@@H](CC(C)C)C(=O)N1CCC[C@H]1C(=O)N1CCC[C@H]1C(=O)N[C@H](C(=O)N[C@@H](CCC(=O)O)C(=O)N[C@@H](CCC(N)=O)C(=O)N[C@@H](CC(=O)O)C(=O)N[C@@H](CC(C)C)C(=O)N[C@@]1(C)CCC/C=C\\CCC[C@@](C)(C(=O)N[C@@H](Cc2ccc(O)cc2)C(N)=O)NC(=O)[C@H](CC2CCCCC2)NC(=O)[C@H](CC(C)C)NC(=O)[C@H](CCCCN)NC1=O)[C@@H](C)O", "note": "[ND1-YL2] (H-RLAAAALLPPTEQDL[S5]KL[Cha][S5]Y-NH2; staple (Z) 16-20)", "values": [{"measurement": "Effect on cell invasion", "setting": "MDA-MB-231 cells", "result": "cell invasion decreased as the treatment concentration of ND1-YL2 increased"}, {"measurement": "Reduction of infiltrated MDA-MB-231-RFP cells in lungs compared to vehicle samples", "setting": "MDA-MB-231-RFP cells", "result": 40, "unit": "%"}, {"measurement": "Degradation effect on SRC-3", "setting": "SRC-3", "result": "no degradation effect was observed"}, {"measurement": "Effect on SRC-1 expression level", "setting": "SRC-1 [1]", "result": "induced a decrease in the expression level of SRC-1 in a dose-dependent manner"}, {"measurement": "Selective degradation of SRC-1 over SRC-3", "setting": "SRC-1 [2]; 20 μM", "result": "selectively degraded only SRC-1"}, {"measurement": "Time after treatment at which SRC-1 degradation was evident", "setting": "SRC-1 [2]; 20 μM", "result": 8, "unit": "h"}, {"measurement": "Time for which SRC-1 degradation was maintained without detectable recovery", "setting": "SRC-1 [2]; 20 μM", "result": 24, "unit": "h"}, {"measurement": "SRC-1 degradation, single agents compared", "setting": "SRC-1 [2]; 20 μM, 12 hours", "result": "degradation of SRC-1 appeared only in ND1-YL2"}, {"measurement": "Time to restoration of SRC-1 expression to the original level after removal of compound", "setting": "SRC-1 [2]; 20 μM, after washing", "result": "≤ 12", "unit": "h"}, {"measurement": "SRC-1 degradation", "setting": "SRC-1 [2]; various concentrations, Western blot", "result": "strongest activity among the synthesized and treated compounds"}, {"measurement": "DC50", "setting": "SRC-1 [2]; various concentrations, Western blot, read-out: DC50 for reduction of SRC-1 expression level", "result": "~10", "unit": "µM"}, {"measurement": "SRC-1 degradation when treated together with MG-132", "setting": "SRC-1 [2]; with proteasome inhibitor MG-132 (5 μM), 12 hours", "result": "did not show the effect of degrading SRC-1"}]}
